In ChEMBL document CHEMBL3886282, “N-myristoyl transferase inhibitors” (2015) one finds IC50 data, which are given here for two molecules.

The structures appear in SMILES notation.

The term IC50 denotes the concentration at which inhibition is half-maximal. Higher therefore signals a need for much substance.

The target of assay [1] is T1, Glycylpeptide N-tetradecanoyltransferase (Leishmania major, UniProt Q4Q5S8).
T1 sequence (Q4Q5S8 whole entry): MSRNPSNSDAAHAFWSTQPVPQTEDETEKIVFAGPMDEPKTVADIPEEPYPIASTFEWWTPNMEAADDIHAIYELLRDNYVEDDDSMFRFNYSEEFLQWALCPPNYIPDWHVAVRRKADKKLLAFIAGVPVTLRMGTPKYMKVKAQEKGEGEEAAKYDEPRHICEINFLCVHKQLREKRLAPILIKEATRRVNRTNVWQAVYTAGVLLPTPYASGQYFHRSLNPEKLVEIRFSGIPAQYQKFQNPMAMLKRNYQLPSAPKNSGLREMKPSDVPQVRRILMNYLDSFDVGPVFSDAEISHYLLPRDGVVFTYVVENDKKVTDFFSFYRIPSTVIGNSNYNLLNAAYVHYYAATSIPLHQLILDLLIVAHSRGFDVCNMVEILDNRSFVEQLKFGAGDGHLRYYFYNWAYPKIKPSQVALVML
Put plainly: Enzyme Inhibition Assay: Measurements were performed using a modification of the scintillation proximity assay platform described previously by Georgopapadakou, N. H. et al. (22nd International Congress on Chemotherapy, 2001, Abstract P16.001). Compounds were solubilised in DMSO at a top concentration of 10 mM and serially diluted in half log steps to achieve a range of final assay concentrations …. For orientation: Scintillation proximity formats need no separation of bound from free tracer.

The target in assay [2] is T2, Glycylpeptide N-tetradecanoyltransferase 1 (Homo sapiens, UniProt P30419).
T2 sequence (P30419 whole entry): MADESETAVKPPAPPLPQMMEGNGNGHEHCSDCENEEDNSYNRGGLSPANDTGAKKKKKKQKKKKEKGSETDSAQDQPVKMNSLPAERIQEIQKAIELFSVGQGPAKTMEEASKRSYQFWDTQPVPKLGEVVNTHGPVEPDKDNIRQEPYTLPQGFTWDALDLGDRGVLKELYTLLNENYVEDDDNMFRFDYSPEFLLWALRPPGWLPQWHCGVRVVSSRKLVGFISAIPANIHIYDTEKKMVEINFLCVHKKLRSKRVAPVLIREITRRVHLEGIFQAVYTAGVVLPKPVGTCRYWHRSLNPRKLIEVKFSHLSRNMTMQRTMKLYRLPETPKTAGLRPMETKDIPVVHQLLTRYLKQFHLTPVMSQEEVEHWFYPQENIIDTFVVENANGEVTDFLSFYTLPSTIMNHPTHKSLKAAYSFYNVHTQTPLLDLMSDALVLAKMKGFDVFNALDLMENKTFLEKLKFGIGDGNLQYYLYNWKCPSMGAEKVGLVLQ
The assay is described as above.

For the molecule `Cc1nn(C)c(C)c1N(C(F)F)S(=O)(=O)c1c(Cl)cc(CCCOC2CC(C)(C)N(C)C(C)(C)C2)cc1Cl`, the results for the IC50 in assay [1] and in assay [2] were 0.04 µM and above 1 µM, respectively.

As to `Cc1nn(C)c(C)c1N(C(F)F)[S+](=O)([O-])c1c(Cl)cc(Br)cc1Cl`, the IC50 in assay [1] and in assay [2] was above 1 µM each time.
